Laboratory results reported in PMC2115601 (The Journal of Cell Biology, 1989).
Residues, ends and D or L forms follow the SMILES beside them.

What was measured:
ADP-stimulated platelets = ADP-stimulated platelets (Homo sapiens, UniProt P05106+P08514); assay: Inhibition of 125I-fibrinogen binding to ADP-stimulated platelets; details: for IC50: read-out: IC50 Platelets (Table III), mean of three separate experiments; for Extent of inhibition of fibrinogen binding to platelets: high concentrations of peptide
endothelial cells [1] = biological target: T1, endothelial cells (UniProt P05106+P06756); assay: Endothelial cell spreading on fibrinogen; assay type: cell-based, human; details: 2 mM peptide, medium 199, 2% BSA
washed platelets = assay: Fibrinogen-dependent aggregation of washed platelets; assay type: cell-based, human; details: 2 mM peptide, 20 μM ADP, medium 199
endothelial cells [2] = biological target: T1, endothelial cells; assay: Inhibition of 125I-fibrinogen binding to endothelial cells in suspension; design: species or system human; details: for Extent of inhibition of fibrinogen binding to endothelial cells: high concentrations of peptide

Sequence of ADP-stimulated platelets (P08514 32-1039): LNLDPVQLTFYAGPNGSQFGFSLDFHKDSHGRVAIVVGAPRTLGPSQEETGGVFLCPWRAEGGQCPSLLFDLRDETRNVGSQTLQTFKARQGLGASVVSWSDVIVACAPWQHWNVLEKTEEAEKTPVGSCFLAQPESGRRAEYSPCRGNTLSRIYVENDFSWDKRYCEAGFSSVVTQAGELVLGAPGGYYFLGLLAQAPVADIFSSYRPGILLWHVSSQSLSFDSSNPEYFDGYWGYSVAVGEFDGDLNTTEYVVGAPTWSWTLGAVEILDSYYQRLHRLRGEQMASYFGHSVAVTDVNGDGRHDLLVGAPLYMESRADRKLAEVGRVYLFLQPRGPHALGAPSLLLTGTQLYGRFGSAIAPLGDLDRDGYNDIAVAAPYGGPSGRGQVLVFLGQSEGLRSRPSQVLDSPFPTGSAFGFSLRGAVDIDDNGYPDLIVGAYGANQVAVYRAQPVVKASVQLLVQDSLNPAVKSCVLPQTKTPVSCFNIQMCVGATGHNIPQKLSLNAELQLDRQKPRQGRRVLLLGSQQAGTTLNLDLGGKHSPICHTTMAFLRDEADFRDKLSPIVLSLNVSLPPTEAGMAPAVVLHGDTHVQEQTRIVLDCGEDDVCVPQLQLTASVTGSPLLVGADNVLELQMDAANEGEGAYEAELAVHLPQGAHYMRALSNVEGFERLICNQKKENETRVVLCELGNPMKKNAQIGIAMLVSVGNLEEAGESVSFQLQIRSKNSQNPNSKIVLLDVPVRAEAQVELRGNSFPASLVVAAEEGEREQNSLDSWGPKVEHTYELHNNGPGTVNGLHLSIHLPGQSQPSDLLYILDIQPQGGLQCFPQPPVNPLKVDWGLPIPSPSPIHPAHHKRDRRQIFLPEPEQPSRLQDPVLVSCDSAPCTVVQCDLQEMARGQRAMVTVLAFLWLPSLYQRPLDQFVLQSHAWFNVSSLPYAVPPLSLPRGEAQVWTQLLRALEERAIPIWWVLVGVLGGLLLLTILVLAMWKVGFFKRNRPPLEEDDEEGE
Sequence of ADP-stimulated platelets (P05106 27-788): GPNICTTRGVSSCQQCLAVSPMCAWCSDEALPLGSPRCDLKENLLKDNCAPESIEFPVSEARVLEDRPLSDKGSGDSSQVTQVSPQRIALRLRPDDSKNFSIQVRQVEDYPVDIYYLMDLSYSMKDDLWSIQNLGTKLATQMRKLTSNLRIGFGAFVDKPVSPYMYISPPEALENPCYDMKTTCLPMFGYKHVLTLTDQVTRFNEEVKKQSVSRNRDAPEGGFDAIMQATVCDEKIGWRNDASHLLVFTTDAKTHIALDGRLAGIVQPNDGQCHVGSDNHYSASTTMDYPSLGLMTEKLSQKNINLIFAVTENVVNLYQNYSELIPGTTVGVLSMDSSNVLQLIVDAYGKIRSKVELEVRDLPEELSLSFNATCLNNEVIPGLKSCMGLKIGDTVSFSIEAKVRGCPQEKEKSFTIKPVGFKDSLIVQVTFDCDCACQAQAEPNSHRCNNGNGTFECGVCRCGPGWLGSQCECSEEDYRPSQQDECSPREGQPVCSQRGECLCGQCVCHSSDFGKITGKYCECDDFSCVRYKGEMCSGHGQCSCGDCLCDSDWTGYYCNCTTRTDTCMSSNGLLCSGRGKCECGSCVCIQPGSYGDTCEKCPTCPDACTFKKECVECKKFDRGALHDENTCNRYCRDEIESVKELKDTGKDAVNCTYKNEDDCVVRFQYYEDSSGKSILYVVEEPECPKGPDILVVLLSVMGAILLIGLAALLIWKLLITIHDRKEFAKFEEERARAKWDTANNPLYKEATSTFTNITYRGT
Sequence of ADP-stimulated platelets (P02671 36-866 partner): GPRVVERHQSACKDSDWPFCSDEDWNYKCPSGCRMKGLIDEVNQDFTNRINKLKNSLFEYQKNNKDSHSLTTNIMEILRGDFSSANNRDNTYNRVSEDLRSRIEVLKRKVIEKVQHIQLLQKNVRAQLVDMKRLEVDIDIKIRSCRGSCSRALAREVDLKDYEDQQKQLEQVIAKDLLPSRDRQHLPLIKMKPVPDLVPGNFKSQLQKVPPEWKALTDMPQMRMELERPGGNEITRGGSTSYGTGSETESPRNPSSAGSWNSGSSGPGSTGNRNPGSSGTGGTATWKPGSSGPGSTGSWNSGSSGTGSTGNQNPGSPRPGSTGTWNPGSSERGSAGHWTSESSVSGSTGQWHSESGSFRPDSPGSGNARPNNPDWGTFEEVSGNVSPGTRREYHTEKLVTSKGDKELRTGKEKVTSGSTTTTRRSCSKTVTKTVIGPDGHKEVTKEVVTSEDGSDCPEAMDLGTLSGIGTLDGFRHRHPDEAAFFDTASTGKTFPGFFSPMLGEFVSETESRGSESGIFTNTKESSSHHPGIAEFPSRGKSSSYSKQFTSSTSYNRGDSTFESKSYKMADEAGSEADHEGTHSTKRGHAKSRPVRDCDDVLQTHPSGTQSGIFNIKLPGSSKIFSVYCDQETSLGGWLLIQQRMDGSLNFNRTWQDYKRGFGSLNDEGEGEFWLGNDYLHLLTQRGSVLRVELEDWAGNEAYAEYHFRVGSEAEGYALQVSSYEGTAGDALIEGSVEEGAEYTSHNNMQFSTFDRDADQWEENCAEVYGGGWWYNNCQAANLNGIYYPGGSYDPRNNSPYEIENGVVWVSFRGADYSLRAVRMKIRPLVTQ
Sequence of ADP-stimulated platelets (P02675 45-491 partner): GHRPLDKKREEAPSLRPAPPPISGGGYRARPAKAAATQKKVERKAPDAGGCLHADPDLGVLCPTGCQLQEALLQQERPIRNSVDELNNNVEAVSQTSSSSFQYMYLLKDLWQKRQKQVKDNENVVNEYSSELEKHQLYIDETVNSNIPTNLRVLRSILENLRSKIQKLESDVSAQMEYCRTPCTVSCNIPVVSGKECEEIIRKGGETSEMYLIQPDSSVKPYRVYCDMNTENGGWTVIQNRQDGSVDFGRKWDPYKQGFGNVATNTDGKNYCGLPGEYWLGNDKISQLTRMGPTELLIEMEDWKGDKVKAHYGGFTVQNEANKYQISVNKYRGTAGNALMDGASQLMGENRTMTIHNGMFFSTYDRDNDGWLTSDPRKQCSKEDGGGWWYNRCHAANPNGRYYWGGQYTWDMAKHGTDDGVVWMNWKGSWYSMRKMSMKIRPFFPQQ
Sequence of ADP-stimulated platelets (P02679 27-453 partner): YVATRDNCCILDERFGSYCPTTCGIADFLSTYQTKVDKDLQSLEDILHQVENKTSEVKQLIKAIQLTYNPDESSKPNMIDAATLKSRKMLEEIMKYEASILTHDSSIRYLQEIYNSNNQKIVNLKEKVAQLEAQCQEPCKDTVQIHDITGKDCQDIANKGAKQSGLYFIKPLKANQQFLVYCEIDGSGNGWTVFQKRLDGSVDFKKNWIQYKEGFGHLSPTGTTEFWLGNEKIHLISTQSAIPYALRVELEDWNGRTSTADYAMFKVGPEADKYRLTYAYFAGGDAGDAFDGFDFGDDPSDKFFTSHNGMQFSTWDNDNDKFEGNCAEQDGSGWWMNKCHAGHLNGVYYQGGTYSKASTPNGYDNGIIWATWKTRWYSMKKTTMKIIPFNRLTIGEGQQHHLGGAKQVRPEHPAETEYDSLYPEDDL
T1 sequence (P06756 31-1048): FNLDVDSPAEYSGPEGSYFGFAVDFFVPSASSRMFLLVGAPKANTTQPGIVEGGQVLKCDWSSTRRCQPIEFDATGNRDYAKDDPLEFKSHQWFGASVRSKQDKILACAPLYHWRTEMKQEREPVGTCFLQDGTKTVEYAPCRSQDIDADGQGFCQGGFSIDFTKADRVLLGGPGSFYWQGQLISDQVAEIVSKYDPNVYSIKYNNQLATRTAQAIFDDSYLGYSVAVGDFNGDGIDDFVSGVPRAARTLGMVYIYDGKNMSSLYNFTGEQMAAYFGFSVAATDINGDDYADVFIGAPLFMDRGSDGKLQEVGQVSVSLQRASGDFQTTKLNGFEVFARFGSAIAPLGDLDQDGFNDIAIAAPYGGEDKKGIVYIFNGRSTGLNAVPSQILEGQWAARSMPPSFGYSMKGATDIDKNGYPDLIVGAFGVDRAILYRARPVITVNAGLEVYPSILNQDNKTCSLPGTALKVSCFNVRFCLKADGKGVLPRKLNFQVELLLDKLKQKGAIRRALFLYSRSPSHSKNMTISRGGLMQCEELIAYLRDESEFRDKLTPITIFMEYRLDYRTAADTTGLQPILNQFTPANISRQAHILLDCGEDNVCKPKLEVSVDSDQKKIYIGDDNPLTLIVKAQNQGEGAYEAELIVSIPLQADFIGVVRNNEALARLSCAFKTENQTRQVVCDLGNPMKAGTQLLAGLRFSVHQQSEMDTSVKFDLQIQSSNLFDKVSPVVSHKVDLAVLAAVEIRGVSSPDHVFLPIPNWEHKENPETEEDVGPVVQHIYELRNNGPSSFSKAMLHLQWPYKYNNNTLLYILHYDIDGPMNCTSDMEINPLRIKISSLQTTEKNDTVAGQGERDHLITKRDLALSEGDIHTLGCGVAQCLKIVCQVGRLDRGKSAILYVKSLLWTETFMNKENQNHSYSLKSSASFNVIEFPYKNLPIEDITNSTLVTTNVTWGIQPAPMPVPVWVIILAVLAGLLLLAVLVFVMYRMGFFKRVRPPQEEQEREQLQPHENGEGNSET
T1 sequence (P05106 27-788): as the sequence (P05106 27-788) above
T1 sequence (P02671 36-866 partner): as the sequence (P02671 36-866 partner) above
T1 sequence (P02675 45-491 partner): as the sequence (P02675 45-491 partner) above
T1 sequence (P02679 27-453 partner): as the sequence (P02679 27-453 partner) above

Row | Extent of inhibition of fibrinogen binding to platelets (ADP-stimulated platelets) | Extent of inhibition of fibrinogen binding to endothelial cells (endothelial cells [2]) | Structure (SMILES) | IC50 (ADP-stimulated platelets) [µM] | Endothelial cell spreading (endothelial cells [1]) | Inhibition Platelet aggregation (washed platelets) [%] | Potency on endothelial cells relative to platelets (endothelial cells [2]; fibrinogen binding inhibition)
1 | – | – | CC(C)[C@H](NC(=O)[C@H](CC(=O)O)NC(=O)CNC(=O)[C@H](C)NC(=O)[C@H](CCC(N)=O)NC(=O)[C@@H](N)CCCNC(=N)N)C(=O)O [RQAGDV] (H-RQAGDV-OH; N-terminus assumed) | > 1000 | – | – | –
2 | – | – | CC(C)[C@H](NC(=O)[C@H](CC(=O)O)NC(=O)CNC(=O)[C@H](C)NC(=O)[C@H](CCC(N)=O)NC(=O)[C@@H](N)Cc1c[nH]cn1)C(=O)O [HQAGDV] (H-HQAGDV-OH; N-terminus assumed) | > 1000 | + + | 0 | at least fivefold
3 | complete | only partially inhibited | CC(C)[C@H](NC(=O)[C@H](CC(=O)O)NC(=O)CNC(=O)[C@H](C)NC(=O)[C@H](CCC(N)=O)NC(=O)[C@H](CCCCN)NC(=O)[C@H](C)NC(=O)CNC(=O)CN)C(=O)O [G9] (H-GGAKQAGDV-OH; N-terminus assumed) | – | – | – | –
4 | complete | only partially inhibited | CC(C)C[C@H](NC(=O)[C@H](Cc1c[nH]cn1)NC(=O)[C@@H](N)Cc1c[nH]cn1)C(=O)NCC(=O)NCC(=O)N[C@@H](C)C(=O)N[C@@H](CCCCN)C(=O)N[C@@H](CCC(N)=O)C(=O)N[C@@H](C)C(=O)NCC(=O)N[C@@H](CC(=O)O)C(=O)N[C@H](C(=O)O)C(C)C [H12] (H-HHLGGAKQAGDV-OH; N-terminus assumed) | – | – | – | –
